{"source": "patent US6420395B1", "about": "“Azacyclooctane and heptane derivatives, their preparation and use in therapy” (Neurosearch A/S, priority 1997, dated 2002)", "key": {"[1]": {"target": "nicotinic ACh receptors comprised of α4 and β2 subunits (3H-cytisine binding site) (Rattus norvegicus, UniProt P09483+P12390)", "sequence (P09483 31-630)": "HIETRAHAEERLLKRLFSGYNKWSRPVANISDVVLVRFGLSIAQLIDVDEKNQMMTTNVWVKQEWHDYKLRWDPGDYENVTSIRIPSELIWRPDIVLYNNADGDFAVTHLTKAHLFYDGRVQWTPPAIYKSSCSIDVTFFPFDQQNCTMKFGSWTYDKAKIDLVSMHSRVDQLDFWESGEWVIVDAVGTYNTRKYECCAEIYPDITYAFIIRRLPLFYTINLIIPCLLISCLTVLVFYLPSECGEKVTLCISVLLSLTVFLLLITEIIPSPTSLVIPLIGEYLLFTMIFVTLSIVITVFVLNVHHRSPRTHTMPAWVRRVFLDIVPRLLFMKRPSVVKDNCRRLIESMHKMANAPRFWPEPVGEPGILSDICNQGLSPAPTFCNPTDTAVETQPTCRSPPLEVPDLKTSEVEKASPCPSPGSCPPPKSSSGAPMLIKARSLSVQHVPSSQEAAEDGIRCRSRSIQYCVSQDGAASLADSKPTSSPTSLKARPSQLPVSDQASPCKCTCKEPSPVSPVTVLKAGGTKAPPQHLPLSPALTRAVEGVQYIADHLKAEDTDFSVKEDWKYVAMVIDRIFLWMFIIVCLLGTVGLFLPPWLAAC", "sequence (P12390 25-500)": "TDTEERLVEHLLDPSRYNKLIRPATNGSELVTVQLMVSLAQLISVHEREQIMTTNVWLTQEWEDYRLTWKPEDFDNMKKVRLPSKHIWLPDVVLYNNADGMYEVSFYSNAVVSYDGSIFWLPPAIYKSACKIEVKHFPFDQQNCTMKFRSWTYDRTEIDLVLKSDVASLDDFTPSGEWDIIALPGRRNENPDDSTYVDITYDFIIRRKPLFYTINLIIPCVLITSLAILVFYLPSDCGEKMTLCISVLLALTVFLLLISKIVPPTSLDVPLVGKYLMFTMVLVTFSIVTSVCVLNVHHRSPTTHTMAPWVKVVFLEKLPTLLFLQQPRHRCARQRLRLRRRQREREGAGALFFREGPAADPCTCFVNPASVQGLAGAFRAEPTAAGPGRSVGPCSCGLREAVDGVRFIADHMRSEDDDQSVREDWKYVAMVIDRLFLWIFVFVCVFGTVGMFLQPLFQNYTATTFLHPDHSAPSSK", "experiment": "In vitro inhibition of 3H-cytisine binding", "method": "In vitro inhibition of ^3H-cytisine binding\nThe predominant subtype with high affinity for nicotine is comprised of α4 and β2 subunits. nAChRs of the latter type can selectively be labelled by the nicotine agonist ^3H-cytisine.\nPreparations are performed at 0-4° C. unless otherwise indicated. […] The homogenate is centrifuged at 27,000×g for 10 min. The supernatant is discarded and the pellet is resuspended in fresh buffer and centrifuged a second time. The final pellet is resuspended in fresh buffer (35 ml per g of original tissue) and used for binding assays.\nAliquots of 500 μl homogenate are added to 25 μl of test solution and 25 μl of ^3H-cytisine (1 nM, final concentration), mixed and incubated for 90 min at 2° C. Non-specific binding is determined using (−)-nicotne (100 μM, final concentration). After incubation the samples are added 5 ml of ice-cold buffer and poured directly onto Whatman GF/C glass fibre filters under suction and immediately washed with 2×5 ml ice-cold buffer. The amount of radioactivity on the filters is determined by conventional liquid scintillation counting. Specific binding is total binding minus non-specific binding."}, "[2]": {"target": "nAChR formed by the α7 subunit (3H-α-bungarotoxin binding site) (Rattus norvegicus, UniProt Q05941)", "sequence (Q05941 23-502)": "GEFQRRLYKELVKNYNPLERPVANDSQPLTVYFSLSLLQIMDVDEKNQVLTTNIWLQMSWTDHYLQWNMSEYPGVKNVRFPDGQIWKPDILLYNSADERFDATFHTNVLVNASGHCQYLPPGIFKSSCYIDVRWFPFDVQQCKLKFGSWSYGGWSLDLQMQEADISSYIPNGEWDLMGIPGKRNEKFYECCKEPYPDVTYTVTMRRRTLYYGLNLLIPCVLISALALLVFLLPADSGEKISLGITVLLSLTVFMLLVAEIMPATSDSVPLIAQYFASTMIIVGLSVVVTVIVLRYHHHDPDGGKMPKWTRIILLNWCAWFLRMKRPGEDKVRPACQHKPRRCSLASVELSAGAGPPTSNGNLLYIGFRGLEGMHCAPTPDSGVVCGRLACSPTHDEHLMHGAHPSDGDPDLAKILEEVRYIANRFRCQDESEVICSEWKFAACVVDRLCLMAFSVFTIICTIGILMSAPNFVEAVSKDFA", "experiment": "biochemical"}, "[3]": {"conditions": "approximate potency relative to morphine; cited from earlier work"}, "[4]": {"conditions": "read-out: 3H-α-bungarotoxin IC50"}, "[5]": {"conditions": "rat cerebral cortex homogenate, 1 nM 3H-cytisine, 90 min at 2° C., read-out: 3H-cytisine IC50"}}, "note": "Structures can show the parent of a compound that is named as a salt. Where two headings read alike, the source gives them in different places.", "data": [{"smiles": "CN1CCCCCCC1c1cccnc1", "note": "(racemic) [Compound 1b, (R,S)-1-Methyl-2-(3-pyridyl)azacyclooctane]", "values": [{"measurement": "IC50", "setting": "[1]", "result": 560, "unit": "nM"}, {"measurement": "IC50", "setting": "[2]; [4]", "result": 67000, "unit": "nM"}]}, {"smiles": "c1cncc(C2CCCCCCN2)c1", "note": "(racemic) (as salt: fumaric acid salt) [Compound 1a, (R,S)-1-H-2-(3-pyridyl)azacyclooctane fumaric acid salt]", "values": [{"measurement": "melting point", "result": "141 to 142", "unit": "°C"}]}, {"smiles": "c1ccc2ncc(C3CCCCCCN3)cc2c1", "note": "(racemic) (as salt: fumaric acid salt) [Compound 3a, (R,S)-1-H-2-(3-quinolinyl)azacyclooctane fumaric acid salt]", "values": [{"measurement": "melting point", "result": "172 to 174", "unit": "°C"}]}, {"smiles": "CCSc1cncc(C2CCCCCN2)c1", "note": "(racemic) (as salt: fumaric acid salt) [Compound 5a, (R,S)-1-H-2-(5-thioethyl-3-pyridyl)azacycloheptane fumaric acid salt]", "values": [{"measurement": "melting point", "result": "159 to 161", "unit": "°C"}]}, {"smiles": "CCSc1cncc(C2CCCCCCN2C)c1", "note": "(racemic) (as salt: fumaric acid salt) [Compound 5b, (R,S)-1-Methyl-2-(5-thioethyl-3-pyridyl)azacyclooctane fumaric acid salt]", "values": [{"measurement": "melting point", "result": "143.5 to 145.5", "unit": "°C"}]}, {"smiles": "Clc1ccc(C2CC3CCC2N3)cn1", "note": "(centres unmarked) [Epibatidine]", "values": [{"measurement": "analgesic potency, times that of morphine", "setting": "[3]", "result": "~500", "unit": "times"}]}, {"smiles": "CCSc1cncc(C2CCCCCN2)c1", "note": "(racemic) [Compound 5a, (R,S)-1-H-2-(5-thioethyl-3-pyridyl)azacycloheptane fumaric acid salt]", "values": [{"measurement": "IC50", "setting": "[1]; [5]", "result": 4300, "unit": "nM"}, {"measurement": "IC50", "setting": "[2]", "result": "> 30000", "unit": "nM"}]}, {"smiles": "c1cncc(C2CCCCCCN2)c1", "note": "(racemic) [Compound 1a, (R,S)-1-H-2-(3-pyridyl)azacyclooctane fumaric acid salt]", "values": [{"measurement": "IC50", "setting": "[1]", "result": 200, "unit": "nM"}, {"measurement": "IC50", "setting": "[2]; [4]", "result": 2000, "unit": "nM"}]}, {"smiles": "CCSc1cncc(C2CCCCCCN2)c1", "note": "(racemic) [Compound 6a, (R,S)-1-H-2-(5-thioethyl-3-pyridyl)azacyclooctane]", "values": [{"measurement": "IC50", "setting": "[1]; [5]", "result": 1000, "unit": "nM"}]}, {"smiles": "c1cncc(C2=NCCCCCC2)c1", "note": "[Compound 1c, 2-(3-Pyridyl)azacyclooct-1-ene]", "values": [{"measurement": "IC50", "setting": "[1]", "result": 59, "unit": "nM"}, {"measurement": "IC50", "setting": "[2]; [4]", "result": 1400, "unit": "nM"}]}, {"smiles": "c1ccc2ncc(C3CCCCCCN3)cc2c1", "note": "(racemic) [Compound 3a, (R,S)-1-H-2-(3-quinolinyl)azacyclooctane fumaric acid salt]", "values": [{"measurement": "IC50", "setting": "[1]; [5]", "result": 1300, "unit": "nM"}, {"measurement": "IC50", "setting": "[2]", "result": "> 30000", "unit": "nM"}]}, {"smiles": "CCSc1cncc(C2CCCCCCN2C)c1", "note": "(racemic) [Compound 5b, (R,S)-1-Methyl-2-(5-thioethyl-3-pyridyl)azacyclooctane fumaric acid salt]", "values": [{"measurement": "IC50", "setting": "[1]; [5]", "result": 1950, "unit": "nM"}]}]}
